According to ChEMBL document CHEMBL1151433, “National and regional assessment of antimicrobial resistance among community-acquired respiratory tract pathogens identified in a 2005-2006 U.S. Faropenem surveillance study” (2007):

Assays:
Streptococcus pneumoniae [1] = assay: Antibacterial activity against Streptococcus pneumoniae ATCC 49619 isolated from respiratory tract infected patients with 6 to 14 years of age after 20 to 24 hrs by broth microdilution method; assay type: functional
Streptococcus pneumoniae [2] = assay: Antibacterial activity against Streptococcus pneumoniae ATCC 49619 isolated from respiratory tract infected patients within 2 years of age after 20 to 24 hrs by broth microdilution method; assay type: functional
Streptococcus pneumoniae [3] = assay: Antibacterial activity against Streptococcus pneumoniae ATCC 49619 isolated from respiratory tract infected patients assessed as susceptible isolates after 20 to 24 hrs by broth microdilution method; assay type: functional
Streptococcus pneumoniae [4] = assay: Antibacterial activity against Streptococcus pneumoniae ATCC 49619 isolated from respiratory tract infected patients with 3 to 5 years of age after 20 to 24 hrs by broth microdilution method; assay type: functional
Streptococcus pneumoniae [5] = assay: Antibacterial activity against Streptococcus pneumoniae ATCC 49619 isolated from respiratory tract infected outpatients after 20 to 24 hrs by broth microdilution method; assay type: functional
Streptococcus pneumoniae [6] = assay: Antibacterial activity against penicillin-resistant Streptococcus pneumoniae ATCC 49619 isolated from respiratory tract infected patients after 20 to 24 hrs by broth microdilution method; assay type: functional
Streptococcus pneumoniae [7] = assay: Antibacterial activity against penicillin-resistant Streptococcus pneumoniae ATCC 49619 isolated from respiratory tract infected patients assessed as susceptible isolates after 20 to 24 hrs by broth microdilution method; assay type: functional
Streptococcus pneumoniae [8] = assay: Antibacterial activity against Streptococcus pneumoniae ATCC 49619 isolated from respiratory tract infected patients within 2 years of age assessed as resistant isolates after 20 to 24 hrs by broth microdilution method; assay type: functional
Streptococcus pneumoniae [9] = assay: Antibacterial activity against Streptococcus pneumoniae ATCC 49619 isolated from respiratory tract infected male patients assessed as resistant isolates after 20 to 24 hrs by broth microdilution method; assay type: functional
Streptococcus pneumoniae [10] = assay: Antibacterial activity against penicillin-resistant Streptococcus pneumoniae ATCC 49619 isolated from respiratory tract infected patients assessed as resistant isolates after 20 to 24 hrs by broth microdilution method; assay type: functional
Streptococcus pneumoniae [11] = assay: Antibacterial activity against penicillin-intermediate Streptococcus pneumoniae ATCC 49619 isolated from respiratory tract infected patients assessed as susceptible isolates after 20 to 24 hrs by broth microdilution method; assay type: functional
Streptococcus pneumoniae [12] = assay: Antibacterial activity against penicillin-susceptible Streptococcus pneumoniae ATCC 49619 isolated from respiratory tract infected patients assessed as susceptible isolates after 20 to 24 hrs by broth microdilution method; assay type: functional
Streptococcus pneumoniae [13] = assay: Antibacterial activity against penicillin-susceptible Streptococcus pneumoniae ATCC 49619 isolated from respiratory tract infected patients after 20 to 24 hrs by broth microdilution method; assay type: functional
Streptococcus pneumoniae [14] = assay: Antibacterial activity against Streptococcus pneumoniae ATCC 49619 isolated from respiratory tract infected male patients after 20 to 24 hrs by broth microdilution method; assay type: functional
Streptococcus pneumoniae [15] = assay: Antibacterial activity against penicillin-intermediate Streptococcus pneumoniae ATCC 49619 isolated from respiratory tract infected patients assessed as resistant isolates after 20 to 24 hrs by broth microdilution method; assay type: functional
Streptococcus pneumoniae [16] = assay: Antibacterial activity against Streptococcus pneumoniae ATCC 49619 isolated from respiratory tract infected patients assessed as resistant isolates after 20 to 24 hrs by broth microdilution method; assay type: functional
Streptococcus pneumoniae [17] = assay: Antibacterial activity against Streptococcus pneumoniae ATCC 49619 isolated from respiratory tract infected patients with 3 to 5 years of age assessed as resistant isolates after 20 to 24 hrs by broth microdilution method; assay type: functional
Streptococcus pneumoniae [18] = assay: Antibacterial activity against Streptococcus pneumoniae ATCC 49619 isolated from respiratory tract infected patients with 15 to 64 years of age after 20 to 24 hrs by broth microdilution method; assay type: functional
Streptococcus pneumoniae [19] = assay: Antibacterial activity against Streptococcus pneumoniae ATCC 49619 isolated from respiratory tract infected outpatients assessed as resistant isolates after 20 to 24 hrs by broth microdilution method; assay type: functional
Streptococcus pneumoniae [20] = assay: Antibacterial activity against Streptococcus pneumoniae ATCC 49619 isolated from respiratory tract infected patients more than 65 years of age assessed as resistant isolates after 20 to 24 hrs by broth microdilution method; assay type: functional
Streptococcus pneumoniae [21] = assay: Antibacterial activity against Streptococcus pneumoniae ATCC 49619 isolated from respiratory tract infected inpatients assessed as resistant isolates after 20 to 24 hrs by broth microdilution method; assay type: functional
Streptococcus pneumoniae [22] = assay: Antibacterial activity against Streptococcus pneumoniae ATCC 49619 isolated from respiratory tract infected patients with 6 to 14 years of age assessed as resistant isolates after 20 to 24 hrs by broth microdilution method; assay type: functional
Streptococcus pneumoniae [23] = assay: Antibacterial activity against Streptococcus pneumoniae ATCC 49619 isolated from respiratory tract infected patients more than 65 years of age after 20 to 24 hrs by broth microdilution method; assay type: functional
Haemophilus influenzae [24] = assay: Antibacterial activity against beta lactamase-positive Haemophilus influenzae […] isolated from respiratory tract infected patients assessed as susceptible isolates after 20 to 24 hrs by broth microdilution method; assay type: functional, ATCC 49247
Haemophilus influenzae [25] = assay: Antibacterial activity against beta lactamase-negative Haemophilus influenzae […] isolated from respiratory tract infected patients assessed as susceptible isolates after 20 to 24 hrs by broth microdilution method; assay type: functional
Streptococcus pneumoniae [26] = assay: Antibacterial activity against Streptococcus pneumoniae ATCC 49619 isolated from respiratory tract infected patients with 15 to 64 years of age assessed as resistant isolates after 20 to 24 hrs by broth microdilution method; assay type: functional
Haemophilus influenzae [27] = assay: Antibacterial activity against Haemophilus influenzae […] isolated from respiratory tract infected patients after 20 to 24 hrs by broth microdilution method; assay type: functional; settings: ATCC 49247
Streptococcus pneumoniae [28] = assay: Antibacterial activity against Streptococcus pneumoniae ATCC 49619 isolated from respiratory tract infected inpatients after 20 to 24 hrs by broth microdilution method; assay type: functional
Haemophilus influenzae [29] = assay: Antibacterial activity against beta lactamase-negative Haemophilus influenzae […] isolated from respiratory tract infected patients after 20 to 24 hrs by broth microdilution method; assay type: functional; settings: ATCC 49247
Streptococcus pneumoniae [30] = assay: Antibacterial activity against Streptococcus pneumoniae ATCC 49619 isolated from respiratory tract infected patients after 20 to 24 hrs by broth microdilution method; assay type: functional
Moraxella catarrhalis = assay: Antibacterial activity against Moraxella catarrhalis isolated from respiratory tract infected patients after 20 to 24 hrs by broth microdilution method; assay type: functional
Streptococcus pneumoniae [31] = assay: Antibacterial activity against Streptococcus pneumoniae ATCC 49619 isolated from respiratory tract infected female patients assessed as resistant isolates after 20 to 24 hrs by broth microdilution method; assay type: functional
Streptococcus pneumoniae [32] = assay: Antibacterial activity against penicillin-susceptible Streptococcus pneumoniae ATCC 49619 isolated from respiratory tract infected patients assessed as resistant isolates after 20 to 24 hrs by broth microdilution method; assay type: functional
Streptococcus pneumoniae [33] = assay: Antibacterial activity against penicillin-intermediate Streptococcus pneumoniae ATCC 49619 isolated from respiratory tract infected patients after 20 to 24 hrs by broth microdilution method; assay type: functional
Haemophilus influenzae [34] = assay: Antibacterial activity against beta lactamase-positive Haemophilus influenzae […] isolated from respiratory tract infected patients after 20 to 24 hrs by broth microdilution method; assay type: functional; settings: ATCC 49247
Haemophilus influenzae [35] = assay: Antibacterial activity against Haemophilus influenzae […] isolated from respiratory tract infected patients assessed as susceptible isolates after 20 to 24 hrs by broth microdilution method; assay type: functional, ATCC 49247
Streptococcus pneumoniae [36] = assay: Antibacterial activity against Streptococcus pneumoniae ATCC 49619 isolated from respiratory tract infected female patients after 20 to 24 hrs by broth microdilution method; assay type: functional

Q: How did the MIC90 (Streptococcus pneumoniae [1]) turn out when `C[C@H]1COc2c(N3CCN(C)CC3)c(F)cc3c(=O)c(C(=O)O)cn1c23.C[C@H]1COc2c(N3CCN(C)CC3)c(F)cc3c(=O)c(C(=O)O)cn1c23.O` [LEVOFLOXACIN] was run?
A: 1 µg/mL

Q: What about the MIC90 (Streptococcus pneumoniae [2]) of the same compound?
A: 1 µg/mL

Q: And the Activity (Streptococcus pneumoniae [3])?
A: 99.2%

Q: What about the MIC90 (Streptococcus pneumoniae [4]) of the same compound?
A: 1 µg/mL

Q: What about the MIC90 (Streptococcus pneumoniae [5]) of the same compound?
A: 1 µg/mL

Q: What about the MIC50 (Streptococcus pneumoniae [6]) of the same compound?
A: 1 µg/mL

Q: What about the MIC90 (Streptococcus pneumoniae [6]) of the same compound?
A: 1 µg/mL

Q: What about the Activity (Streptococcus pneumoniae [7]) of the same compound?
A: 98%

Q: And the Activity (Streptococcus pneumoniae [8])?
A: 0%

Q: What about the Activity (Streptococcus pneumoniae [9]) of the same compound?
A: 0.8%

Q: And the Activity (Streptococcus pneumoniae [10])?
A: 1.6%

Q: What about the Activity (Streptococcus pneumoniae [11]) of the same compound?
A: 98.8%

Q: And the Activity (Streptococcus pneumoniae [12])?
A: 99.7%

Q: And the MIC50 (Streptococcus pneumoniae [13])?
A: 1 µg/mL

Q: What about the MIC90 (Streptococcus pneumoniae [13]) of the same compound?
A: 1 µg/mL

Q: And the MIC90 (Streptococcus pneumoniae [14])?
A: 1 µg/mL

Q: What about the Activity (Streptococcus pneumoniae [15]) of the same compound?
A: 0.9%

Q: What about the Activity (Streptococcus pneumoniae [16]) of the same compound?
A: 0.6%

Q: What about the Activity (Streptococcus pneumoniae [17]) of the same compound?
A: 0%

Q: What about the MIC90 (Streptococcus pneumoniae [18]) of the same compound?
A: 1 µg/mL

Q: What about the Activity (Streptococcus pneumoniae [19]) of the same compound?
A: 0.9%

Q: And the Activity (Streptococcus pneumoniae [20])?
A: 1.4%

Q: And the Activity (Streptococcus pneumoniae [21])?
A: 0.1%

Q: And the Activity (Streptococcus pneumoniae [22])?
A: 0%

Q: What about the MIC90 (Streptococcus pneumoniae [23]) of the same compound?
A: 1 µg/mL

Q: And the Activity (Haemophilus influenzae [24])?
A: 100%

Q: What about the Activity (Haemophilus influenzae [25]) of the same compound?
A: 99.7%

Q: What about the Activity (Streptococcus pneumoniae [26]) of the same compound?
A: 0.4%

Q: And the MIC50 (Haemophilus influenzae [27])?
A: ≤ 0.06 µg/mL

Q: And the MIC90 (Haemophilus influenzae [27])?
A: ≤ 0.06 µg/mL

Q: What about the MIC90 (Streptococcus pneumoniae [28]) of the same compound?
A: 1 µg/mL

Q: What about the MIC50 (Haemophilus influenzae [29]) of the same compound?
A: ≤ 0.06 µg/mL

Q: What about the MIC90 (Haemophilus influenzae [29]) of the same compound?
A: ≤ 0.06 µg/mL

Q: What about the MIC50 (Streptococcus pneumoniae [30]) of the same compound?
A: 1 µg/mL

Q: And the MIC90 (Streptococcus pneumoniae [30])?
A: 1 µg/mL

Q: What about the MIC50 (Moraxella catarrhalis) of the same compound?
A: ≤ 0.06 µg/mL

Q: And the MIC90 (Moraxella catarrhalis)?
A: ≤ 0.06 µg/mL

Q: What about the Activity (Streptococcus pneumoniae [31]) of the same compound?
A: 0.3%

Q: And the Activity (Streptococcus pneumoniae [32])?
A: 0.2%

Q: What about the MIC50 (Streptococcus pneumoniae [33]) of the same compound?
A: 1 µg/mL

Q: And the MIC90 (Streptococcus pneumoniae [33])?
A: 1 µg/mL

Q: What about the MIC50 (Haemophilus influenzae [34]) of the same compound?
A: ≤ 0.06 µg/mL

Q: And the MIC90 (Haemophilus influenzae [34])?
A: ≤ 0.06 µg/mL

Q: And the Activity (Haemophilus influenzae [35])?
A: 99.9%

Q: What about the MIC90 (Streptococcus pneumoniae [36]) of the same compound?
A: 1 µg/mL
